From PMC4468182, “Murine Efficacy and Pharmacokinetic Evaluation of the Flaviviral NS5 Capping Enzyme 2-Thioxothiazolidin-4-One Inhibitor BG-323” (PLoS ONE, 2015)
“And” between values parts separate entries of the source, which are not always exact repeats. Equal entries are not always repeated.

What was measured:
Yellow fever viruses = details: cited from earlier work
[1] = Plasma protein binding assay (Rapid Equilibrium Dialysis); format: in vitro ADME; details: human plasma, 5 μM, pH 7.4, 37°C, 4 hr
Caco-2 cells = assay: Caco-2 cell permeability assay; details: 5 μM, Caco-2, pH 7.4, 120 min
[2] = In vivo half-life (T1/2), serum LC/MS/MS
[3] = system: West Nile virus (NY99 strain); assay: In vitro West Nile virus efficacy assay (plaque assay); format: cell-based
[4] = system: Powassan virus (LB strain); format: cell-based
[5] = system: West Nile virus (subtype Kunjin); parameters: method as in PMID 22674988; details: 75 μM, cell culture, previously tested; cited from earlier work
[6] = In vivo toxicity assay (mouse weight); parameters: species or system ICR mice; details: 50 mg/kg IP
Procedure: Two groups of 3 mice each were either injected with 150 μL of 50 mg/kg BG-323 (synthesized by Brian McNaughton’s group at CSU [15]) formulated in 10% DMSO, 15% solutol and 75% saline or DMSO vehicle in the same formulation. Mice were weighed daily for 7 days and percent of maximum weight loss was calculated.

CYP P450 isoform 2C9 = CYP P450 isoform 2C9 (Homo sapiens, UniProt P11712); assay: CYP P450 binding assay, isoform 2C9; details: 10 μM, human liver microsomes, diclofenac substrate, vs sulfaphenazole positive control
Sequence of CYP P450 isoform 2C9 (P11712 whole entry, canonical isoform): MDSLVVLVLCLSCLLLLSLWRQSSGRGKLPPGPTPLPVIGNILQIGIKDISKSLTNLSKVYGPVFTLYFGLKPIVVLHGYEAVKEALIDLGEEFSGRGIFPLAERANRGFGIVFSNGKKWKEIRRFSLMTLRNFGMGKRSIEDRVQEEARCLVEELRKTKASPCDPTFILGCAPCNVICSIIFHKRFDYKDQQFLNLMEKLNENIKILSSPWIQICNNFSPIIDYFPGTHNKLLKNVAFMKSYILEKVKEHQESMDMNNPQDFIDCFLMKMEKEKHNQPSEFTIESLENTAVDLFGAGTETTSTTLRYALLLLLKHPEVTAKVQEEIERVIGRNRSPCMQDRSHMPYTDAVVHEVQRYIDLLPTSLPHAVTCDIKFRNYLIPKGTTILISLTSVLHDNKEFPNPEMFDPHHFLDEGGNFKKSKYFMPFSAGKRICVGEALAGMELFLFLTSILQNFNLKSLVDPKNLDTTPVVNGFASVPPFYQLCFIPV

CYP P450 isoform 3A4 = CYP P450 isoform 3A4 (Homo sapiens, UniProt P08684); assay: CYP P450 binding assay, isoform 3A4; details: 10 μM, human liver microsomes, midazolam substrate, vs ketoconazole positive control
Sequence of CYP P450 isoform 3A4 (P08684 whole entry, canonical isoform): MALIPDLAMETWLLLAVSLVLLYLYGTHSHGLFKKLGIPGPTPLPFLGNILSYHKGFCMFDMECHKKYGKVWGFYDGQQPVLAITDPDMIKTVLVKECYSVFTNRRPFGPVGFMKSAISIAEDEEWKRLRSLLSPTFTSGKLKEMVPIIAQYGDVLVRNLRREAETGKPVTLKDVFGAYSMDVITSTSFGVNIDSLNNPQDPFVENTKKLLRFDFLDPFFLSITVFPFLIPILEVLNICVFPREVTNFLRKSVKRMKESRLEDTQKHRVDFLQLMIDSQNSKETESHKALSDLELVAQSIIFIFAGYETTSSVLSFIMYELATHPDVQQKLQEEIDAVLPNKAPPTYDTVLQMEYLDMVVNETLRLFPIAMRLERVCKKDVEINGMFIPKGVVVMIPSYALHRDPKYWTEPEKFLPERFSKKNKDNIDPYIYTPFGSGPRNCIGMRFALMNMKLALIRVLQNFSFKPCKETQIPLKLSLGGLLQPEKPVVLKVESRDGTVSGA

WNV (Kunjin subtype) = assay: BG-323 resistance study, six rounds of infection; format: cell-based, West Nile virus; details: 75 μM BG-323, BHK21 cells, 100 PFU Kunjin per round, six 3-day rounds
Procedure: On day one, BHK-21 cells (ATCC) were seeded in 12-well plates at 50,000 cells/mL and allowed to attach overnight. The following day, each of 9 wells was infected with 100 PFU WNV (Kunjin subtype) in complete DMEM (cDMEM) and 3 uninfected control wells received cDMEM only. Cells were incubated with media for 2 hr at 37°C to allow cells to become infected. After 2 hr, infected cDMEM was replaced with new media containing DMSO or 75 μM BG-323. Each condition was run in triplicate. Following DMSO or drug administration, cells were incubated at 37°C. On day 3, samples were collected and stored at -80°C. Viral titers were calculated by plaque assay as previously described on one tube of the day 3 samples for each replicate. 100 PFU from an unthawed day 3 sample was used to infect fresh BHK 21 cells to start the next round of infection. The three-day cycle was considered one round of infection and the study continued for 6 rounds. The infectious input of Kunjin virus and the concentrations (75 μM) of BG-323 were held constant throughout the study.

WNV NY99 = assay: In vivo antiviral efficacy in WNV NY99-challenged mice; parameters: species or system ICR mice; key to Clinical score, day 1 post-challenge / Clinical score, day 2 post-challenge / Clinical score, day 3 post-challenge / Clinical score, day 4 post-challenge / Clinical score, day 5 post-challenge / Clinical score, day 6 post-challenge / Clinical score, day 7 post-challenge / Clinical score, day 8 post-challenge / Clinical score, day 9 post-challenge / Clinical score, day 10 post-challenge / Clinical score, day 11 post-challenge / Clinical score, day 12 post-challenge / Clinical score, day 13 post-challenge / Clinical score, day 14 post-challenge: 0 is normal; 1 is questionable illness; 2 is distinct mild illness; 3 is distinct disease; 4 is serious disease/moribund
[7] = Metabolic stability assay in liver microsomes; details: 1 μM, human liver microsomes 0.5 mg/mL, NADPH
[8] = mice, 0.38 mL bolus of 5 mg/mL, serum

## CC(C)(C)c1ccc(/C=C2/SC(=S)N(CCC(=O)O)C2=O)cc1 [BG-323, (E)-{3-[5-94-tert-butylbenzylidene0-4-oxo-2-thioxo-1,3-thiazolidin-3-yl]propanoic acid}]
Yellow fever viruses
  log reduction of titers, Yellow fever virus: ~1 log
[1]
  percent bound to plasma proteins: 99.9%
Caco-2 cells; A to B
  Average Papp, A to B: 49.4±1 x 10^−6 cm/s
  Percent Recovery, A to B: 43%
Caco-2 cells; B to A
  Average Papp, B to A: 49.6±9.5 x 10^−6 cm/s
  Percent Recovery, B to A: 57%
[2]; 0.38 mL bolus of 5 mg/mL, serum
  T1/2 in mice: 1.75 h
[2]; [8]
  Initial concentration (C0): 19275 ng/mL
  elimination rate constant (Kel): 0.395 h⁻¹
[2]; mice, 0.38 mL of 5 mg/mL, 5 min
  average serum concentration five min after administration: ~21,000 ng/mL
[3]
  reduction of West Nile virus titers: approximately 5 logs
[3]; 75 μM, BHK21 cells, 72 hours, Fig 1 legend
  reduction in viral titers compared to DMSO controls (WNV): ~5 fold
[4]
  reduction in viral titers compared to DMSO controls (Powassan): ~5 fold
  reduction of Powassan virus titers: approximately 5 logs
[5]
  log reduction of titers, West Nile virus (subtype Kunjin): approximately 2 log
[6]; 7 days
  gross toxicity in mice: does not appear to be grossly toxic
[6]; mice, weights monitored 7 days
  average weight loss percentage (maximum weight loss): 3.5%
CYP P450 isoform 2C9
  percent inhibition of CYP 2C9: insignificant compared to positive controls
CYP P450 isoform 3A4
  percent inhibition of CYP 3A4: insignificant compared to positive controls
WNV (Kunjin subtype)
  emergence of resistance (viral titers over time): no significant increase in viral titers over time
WNV NY99; 500 PFU WNV NY99 footpad, 50 mg/kg IP BID 5 days, day 3 post challenge
  average viral titers in sera on day three: 1.6x10^5 PFU/mL
WNV NY99; individual WNV NY99-challenged mice, 50 mg/kg IP BID 5 days, day 1
  Clinical score, day 1 post-challenge: 0
WNV NY99; individual WNV NY99-challenged mice, 50 mg/kg IP BID 5 days, day 2
  Clinical score, day 2 post-challenge: 0
WNV NY99; individual WNV NY99-challenged mice, 50 mg/kg IP BID 5 days, day 3
  Clinical score, day 3 post-challenge: 0
WNV NY99; individual WNV NY99-challenged mice, 50 mg/kg IP BID 5 days, day 4
  Clinical score, day 4 post-challenge: 0
WNV NY99; individual WNV NY99-challenged mice, 50 mg/kg IP BID 5 days, day 5
  Clinical score, day 5 post-challenge: 0
WNV NY99; individual WNV NY99-challenged mice, 50 mg/kg IP BID 5 days, day 6
  Clinical score, day 6 post-challenge: 1
WNV NY99; individual WNV NY99-challenged mice, 50 mg/kg IP BID 5 days, day 7
  Clinical score, day 7 post-challenge: 1 and 4
WNV NY99; individual WNV NY99-challenged mice, 50 mg/kg IP BID 5 days, day 8
  Clinical score, day 8 post-challenge: 1 and 4
WNV NY99; individual WNV NY99-challenged mice, 50 mg/kg IP BID 5 days, day 9
  Clinical score, day 9 post-challenge: 4 and 2 and 1
WNV NY99; individual WNV NY99-challenged mice, 50 mg/kg IP BID 5 days, day 10
  Clinical score, day 10 post-challenge: 4 and 1
WNV NY99; individual WNV NY99-challenged mice, 50 mg/kg IP BID 5 days, day 11
  Clinical score, day 11 post-challenge: 1
WNV NY99; individual WNV NY99-challenged mice, 50 mg/kg IP BID 5 days, day 12
  Clinical score, day 12 post-challenge: 0
WNV NY99; individual WNV NY99-challenged mice, 50 mg/kg IP BID 5 days, day 13
  Clinical score, day 13 post-challenge: 0
WNV NY99; individual WNV NY99-challenged mice, 50 mg/kg IP BID 5 days, day 14
  Clinical score, day 14 post-challenge: 0
WNV NY99; mouse, in vivo
  survival probability (Kaplan-Meier) versus control: approximately the same between the two groups
[7]
  T1/2 in human liver microsomes: > 1 h
  in vitro intrinsic clearance (CLint): < 0.023 mL/min/mg protein
[7]; 60 min
  percent of initial concentration remaining at 60 minutes: 85%
